Consider 2 compounds from US7767648B2, “Tissue specific prodrugs” (priority 2000, dated 2010).

One may read the amount remaining as what is left of the initial amount, in per cent.

The target of series [1] is PSMA (Homo sapiens, UniProt Q04609). Briefly: Hydrolysis of methotrexate analog substrates by purified PSMA (HPLC). It is filed as biochemical. On the procedure: The extent to which various peptide substrates are hydrolyzed by PSMA was determined by synthesizing a series of methotrexate analogs including the 4-N[N-2,4-diamino-6-pteridinyl-methyl)-N-methylamino-benzoate] (APA) portion of methotrexate coupled to a variety of peptides. Poly-glutamated methotrexate is available from Schirks Laboratories in Jona, Switzerland.
A series of α-linked peptides were investigated for PSMA hydrolysis. […] In Tables 1-3, to simplify identification of the type of amino acid linkages employed, α-linkages are denoted by a hyphen (for example, Glu-Glu) and all side-chain linkages are denoted by a star (for example, Glu*Glu).
Substrate specificity for the pteroyl poly-γ-glutamyl carboxypeptidase (folate hydrolase) activity of PSMA was determined by synthesizing a series of γ-linked methotrexate analogs and assaying them for hydrolysis by PSMA.
(§1) In Tables 1-3, to simplify identification of the type of amino acid linkages employed, α-linkages are denoted by a hyphen (for example, Glu-Glu) and all side-chain linkages are denoted by a star (for example, Glu*Glu). The column labeled “% PSMA Hydrolysis” refers to the percentage of hydrolysis of a substrate to APA-Asp or to APS-Glu by purified PSMA. The column labeled “% APA-Asp or -Glu” refers to the percentage of hydrolysis of substrate to APA-Asp or APA-Glu. The column labeled “% Prodrug Remaining” refers to the area of the HPLC peak attributable to starting material divided by the areas of HPLC peaks attributable to starting material, intermediate products, and final products. […] “ND” means “not determined,” in that the experiment was not performed.

The nature of series [2]: Stability of PSMA substrates in human plasma, 18 hour incubation, HPLC. It counts as in vitro ADME. As to conditions: 18 hour incubation in human plasma.
Source text: (§2) In order that the prodrugs can be administered systemically via the blood, their stability in sera must be sufficiently high to avoid hydrolysis or other degradative processes which may occur prior to the prodrugs reaching their target tissues. In addition to GGH activity, a human blood plasma glutamate carboxypeptidase (PGCP) that has significant sequence homology to PSMA and glutamate carboxypeptidase activity has been identified. Therefore, to assay hydrolysis by GGH and other serum carboxypeptidases like PGCP, the APA-Glu*Glu*Glu*Glu*Asp, APA-Glu*Glu*Glu*Glu*Gln, and APA-Glu*Glu*Glu*Glu*Glu substrates were incubated in human and mouse plasma and hydrolysis determined by HPLC analysis after an 18-hour incubation, as shown in Table 3. As noted, GGH efficiently hydrolyzes poly-γ-glutamate chains as well as poly-γ-glutamated folate and methotrexate. GGH, however, is unable to hydrolyze α-linked peptides.
as §1

Series [3] can be described thus: Stability of PSMA substrates in mouse plasma, 18 hour incubation, HPLC. It counts as in vitro ADME. As to conditions: 18 hour incubation in mouse plasma.
Source text: as §2, §1

Series [4] relates to TSU cancer cell line. The series can be described thus: Inhibition of clonogenic survival of TSU cells in presence or absence of exogenous PSMA. It is filed as cell-based. As to conditions: exogenous PSMA 10 micrograms/mL, FIG. 4. On the procedure: FIG. 4 is a graph of the percentage inhibition of clonogenic survival of TSU cells exposed to various concentrations of APA-Glu*Glu*Glu*Glu*Asp in the presence or absence of PSMA.
The methotrexate analog sequence APA-Glu*Glu*Glu*Glu*Asp was contacted with the non-PSMA producing TSU cancer cell line in various amounts. Exogenous PSMA (10 micrograms/mL) was added to the media and the percent inhibition of clonogenic survival was monitored.

The test system of series [5] is TSU prostate cancer cell line. The series can be described thus: Killing of non-PSMA producing TSU prostate cancer cell line. It counts as cell-based, human. How it is done: The prodrugs are hydrolyzed by PSMA and release the corresponding Asp- or Glu-containing TG analogs or the TG analog itself, and also lack potent cytotoxicity when not metabolized by PSMA. Non-PSMA producing TSU-Pr1 human prostate cancer cell line is exposed to each of the prodrugs at doses that are approximately 50-times the LD50 for the corresponding free TG analog. Against the TSU prostate cancer cell line, 12ADT-Glu has an LD50 value for killing of ˜50 nM.

Sequence of PSMA (Q04609 whole entry): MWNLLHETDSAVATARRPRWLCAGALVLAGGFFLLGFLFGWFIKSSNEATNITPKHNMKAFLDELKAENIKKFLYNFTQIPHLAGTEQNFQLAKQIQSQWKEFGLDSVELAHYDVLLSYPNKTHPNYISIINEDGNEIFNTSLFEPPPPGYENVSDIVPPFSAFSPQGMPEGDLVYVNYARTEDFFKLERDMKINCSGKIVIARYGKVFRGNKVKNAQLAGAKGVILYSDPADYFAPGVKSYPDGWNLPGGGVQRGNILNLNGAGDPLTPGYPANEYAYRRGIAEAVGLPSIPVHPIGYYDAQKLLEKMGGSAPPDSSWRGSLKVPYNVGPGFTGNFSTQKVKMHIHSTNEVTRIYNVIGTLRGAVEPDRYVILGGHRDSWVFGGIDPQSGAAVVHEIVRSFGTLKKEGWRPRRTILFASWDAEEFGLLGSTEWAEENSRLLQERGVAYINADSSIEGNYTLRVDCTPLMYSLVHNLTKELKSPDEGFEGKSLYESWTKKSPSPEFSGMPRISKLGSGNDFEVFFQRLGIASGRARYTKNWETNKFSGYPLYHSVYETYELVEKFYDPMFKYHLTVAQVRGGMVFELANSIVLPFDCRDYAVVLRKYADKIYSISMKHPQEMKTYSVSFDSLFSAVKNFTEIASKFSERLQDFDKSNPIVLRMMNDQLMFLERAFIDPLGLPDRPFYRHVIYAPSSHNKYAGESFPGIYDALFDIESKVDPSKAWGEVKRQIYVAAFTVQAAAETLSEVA

Turning to `CN(Cc1cnc2nc(N)nc(N)c2n1)c1ccc(C(=O)N[C@@H](CCC(=O)N[C@@H](CCC(=O)N[C@@H](CCC(=O)N[C@@H](CCC(=O)N[C@@H](CC(=O)O)C(=O)O)C(=O)O)C(=O)O)C(=O)O)C(=O)O)cc1` [APA-Glu*Glu*Glu*Glu*Asp], in series [1] (Table 2, γ-linked analogs, incubated with PSMA 24 hours), the “% hydrolysis after 24 hours” value is given as 40.9%. For the same compound, in series [1] (Table 2, γ-linked analogs, incubated with PSMA 48 hours), the “% hydrolysis after 48 hours” value worked out at 77.7%. Moreover, the “% PSMA hydrolysis 24 h” value in series [1] (Table 3, hydrolysis of substrate to APA-Asp or APA-Glu by purified PSMA, 24 h) amounted to 98%. In addition, the “% PSMA hydrolysis 48 h” value in series [1] (Table 3, hydrolysis of substrate to APA-Asp or APA-Glu by purified PSMA, 48 h) came out at 100%. Also, in series [1] (text summary of the tables), the “hydrolysis by PSMA (in words)” value was “to a greater extent after 24 hours than any of the γ-linked dipeptide analogs”. For the same compound, in series [2] (HPLC peak area of starting material over all peaks, read-out: % Prodrug Remaining), the amount remaining at 18 h worked out at 20%. The “% APA-Glu or -Asp” value in series [2] (hydrolysis of substrate to APA-Asp or APA-Glu) stood at 9%; in series [3], 72%. Moreover, the “selectivity, percent inhibition of clonogenic survival with versus without PSMA” value in series [4] is given as “there is selectivity”.

Consider “8-O-(12-[L-glutamylamino]-dodecanoyl)-8-O-debutanoylthapsigargin [12ADT-Glu]”, for which the “LD50 value for killing” value in series [5] is recorded as “approximately 50 nM”.
